Measurements taken from patent publication US20150322406A1, “METHOD FOR REPROGRAMMING SOMATIC CELLS TO PANCREATIC BETA CELLS” (CANCER RESEARCH TECHNOLOGY LIMITED, priority 2012, published 2015).

System: NGN3-HA overexpressed in 293T cells
Experiment: Western blot analysis of overexpressed NGN3-HA in 293T cells upon GSK3 inhibitor
Type: cell-based
Details: HEK293T cells overexpressing NGN3-HA, treated with GSK3β inhibitor; Western blot (FIG. 6b)
From the text: (A) Schematic representation of the proposed mechanism of NGN3 degradation by Fbw7. (B) Western Blot analysis of overexpressed NGN3-HA in 293T cells upon GSK3 inhibitor. (C) Schematic representation of NGN3 GSK3 phosphorylation residues and the different NGN3 phospho-mutant construct generated. (D) NGN3-HA/Fbw7-Flag Immunoprecipitation assay using the different NGN3 constructs indicated in C. (E) Western Blot analysis of NGN3 in cells overexpressing the different NGN3 construct indicated in C. HEK293T cells were cultured in DMEM and 10% FBS. Cells were plated at subconfluence and transfected with Lipofectamine Reagent (Invitrogen) following the manufacturer instructions. HEK293T cells lysates or tissues were homogenized in RIPA lysis buffer supplemented with protease inhibitor (Sigma). Immunoblots were carried out as previously described^4. The gels were transferred to nitrocellulose membranes, and the membranes were immunoblotted with various antibodies as indicated: anti-NGN3, anti-flag, anti-HA, and anti-Myc. The conversion of pancreatic ductal cells into β-cells observed in the RFY mice in vivo could be due to up-regulation of substrates involved in beta cell neogenesis in the adult pancreas. […] To test whether Fbw7 had any effect on NGN3 protein stability (see FIG. 6a), a set of in vitro experiments were conducted. […]

Cn1cc(C2=C(c3ccc(Cl)cc3Cl)C(=O)NC2=O)c2ccccc21 [SB216763]
NGN3 protein stability: increased
